In patent publication US12043599B2, “Herbicidal compounds” (SYNGENTA PARTICIPATIONS AG, priority 2018, dated 2024):

Columns and labels:
Assay type in all cases: in vivo
Details in all cases: 250 g/h, evaluated after 13 days
[1] = tested on: Avena fatua (AVEFA); test: Pre-emergence herbicidal glasshouse test, percentage damage
Description: (§1) Seeds of a variety of test species are sown in standard soil in pots (Lolium perenne (LOLPE), Setaria faberi (SETFA), Alopecurus myosuroides (ALOMY), Echinochloa crus-galli (ECHCG), Avena fatua (AVEFA)). After cultivation for one day (pre-emergence) or after 8 days cultivation (post-emergence) under controlled conditions in a glasshouse (at 24/16° C., day/night; 14 hours light; 65% humidity), the plants are sprayed with an aqueous spray solution derived from the formulation of the technical active ingredient in acetone/water (50:50) solution containing 0.5% Tween 20 (polyoxyethelyene sorbitan monolaurate, CAS RN 9005-64-5). Compounds are applied at […]. The test plants are then grown in a glasshouse under controlled conditions in a glasshouse (at 24/16° C., day/night; 14 hours light; 65% humidity) and watered twice daily. After 13 days for pre and post-emergence, the test is evaluated for the percentage damage caused to the plant. The biological activities are shown in the following table on a five point scale (5=80-100%; 4=60-79%; 3=40-59%; 2=20-39%; 1=0-19%).

[2] = tested on: Echinochloa crus-galli (ECHCG); test: as above
Description: as §1

[3] = tested on: Lolium perenne (LOLPE); test: as above
Description: as §1

[4] = tested on: Setaria faberi (SETFA); test: as above
Description: as §1

[5] = tested on: Setaria faberi (SETFA); test: Post-emergence herbicidal glasshouse test, percentage damage
Description: as §1
Using procedures outlines above, wheat and barley crop plants and a weed species (SETFA) are treated post-emergence with compound A11 of the present invention or comparator compound C1 (Compound A-38 from WO2014/096289) at the application rates indicated. The compounds were also applied to wheat in conjunction with the safener compound cloquintocet-mexyl (CQC) at 50 g/ha.

[6] = tested on: Avena fatua (AVEFA); test: as above
Description: as §1

[7] = tested on: Echinochloa crus-galli (ECHCG); test: as above
Description: as §1

[8] = tested on: Lolium perenne (LOLPE); test: as above
Description: as §1

Structure (SMILES)	AVEFA PRE percentage damage (five point scale) [1]	ECHCG PRE percentage damage (five point scale) [2]	LOLPE PRE percentage damage (five point scale) [3]	SETFA PRE percentage damage (five point scale) [4]	SETFA POST percentage damage (five point scale) [5]	AVEFA POST percentage damage (five point scale) [6]	ECHCG POST percentage damage (five point scale) [7]	LOLPE POST percentage damage (five point scale) [8]
CC#Cc1cc(C)c(C2C(=O)CC3(CCN(C(=O)c4cnc(C#N)s4)CC3)CC2=O)c(C)c1 [Compound A106]	2 (2=20-39%)	4 (4=60-79%)	3 (3=40-59%)	4 (4=60-79%)	5 (5=80-100%)	5 (5=80-100%)	3 (3=40-59%)	3 (3=40-59%)
CC#Cc1cc(C)c(C2C(=O)CC3(CCN(S(=O)(=O)c4cnccn4)CC3)CC2=O)c(C)c1 [Compound A107]	4 (4=60-79%)	3 (3=40-59%)	5 (5=80-100%)	4 (4=60-79%)	5 (5=80-100%)	5 (5=80-100%)	5 (5=80-100%)	5 (5=80-100%)
CC#Cc1cc(C)c(C2C(=O)CC3(CCN(C(=O)NC(=O)CC)CC3)CC2=O)c(C)c1 [Compound A108]	5 (5=80-100%)	5 (5=80-100%)	5 (5=80-100%)	5 (5=80-100%)	5 (5=80-100%)	5 (5=80-100%)	5 (5=80-100%)	5 (5=80-100%)
CC#Cc1cc(C)c(C2C(=O)CC3(CCN(C(=O)CC4CCOCC4)CC3)CC2=O)c(C)c1 [Compound A109]	5 (5=80-100%)	5 (5=80-100%)	5 (5=80-100%)	5 (5=80-100%)	5 (5=80-100%)	5 (5=80-100%)	5 (5=80-100%)	5 (5=80-100%)
CC#Cc1cc(C)c(C2C(=O)CC3(CCN(C(=O)c4cccc(OC)n4)CC3)CC2=O)c(C)c1 [Compound A110]	5 (5=80-100%)	5 (5=80-100%)	5 (5=80-100%)	5 (5=80-100%)	5 (5=80-100%)	5 (5=80-100%)	5 (5=80-100%)	5 (5=80-100%)
CC#Cc1cc(C)c(C2C(=O)CC3(CCN(C(=O)c4nccn4C)CC3)CC2=O)c(C)c1 [Compound A112]	5 (5=80-100%)	5 (5=80-100%)	5 (5=80-100%)	5 (5=80-100%)	5 (5=80-100%)	5 (5=80-100%)	5 (5=80-100%)	5 (5=80-100%)
CC#Cc1cc(C)c(C2C(=O)CC3(CCN(C(=O)c4ncccc4C#N)CC3)CC2=O)c(C)c1 [Compound A114]	4 (4=60-79%)	5 (5=80-100%)	5 (5=80-100%)	5 (5=80-100%)	5 (5=80-100%)	5 (5=80-100%)	5 (5=80-100%)	5 (5=80-100%)
CC#Cc1cc(C)c(C2C(=O)CC3(CCN(C(=O)c4cnccc4C)CC3)CC2=O)c(C)c1 [Compound A115]	3 (3=40-59%)	5 (5=80-100%)	5 (5=80-100%)	5 (5=80-100%)	5 (5=80-100%)	5 (5=80-100%)	5 (5=80-100%)	5 (5=80-100%)
CC#Cc1cc(C)c(C2C(=O)CC3(CCN(C(=O)c4cnco4)CC3)CC2=O)c(C)c1 [Compound A116]	5 (5=80-100%)	5 (5=80-100%)	5 (5=80-100%)	5 (5=80-100%)	5 (5=80-100%)	5 (5=80-100%)	5 (5=80-100%)	5 (5=80-100%)
CC#Cc1cc(C)c(C2C(=O)CC3(CCN(C(=O)c4cn(C)cn4)CC3)CC2=O)c(C)c1 [Compound A117]	2 (2=20-39%)	5 (5=80-100%)	4 (4=60-79%)	5 (5=80-100%)	5 (5=80-100%)	5 (5=80-100%)	5 (5=80-100%)	5 (5=80-100%)
CC#Cc1cc(C)c(C2C(=O)CC3(CCN(C(=O)c4cncs4)CC3)CC2=O)c(C)c1 [Compound A118]	5 (5=80-100%)	5 (5=80-100%)	5 (5=80-100%)	5 (5=80-100%)	5 (5=80-100%)	5 (5=80-100%)	5 (5=80-100%)	5 (5=80-100%)
